# Reference: patent US5770570A, “Method of delivering a vasoactive intestinal polypeptide, an encapsulated vasoactive intestinal polypeptide, and a method of making the encapsulated vasoactive intestinal polypeptide” (priority 1995, dated 1998)
# Where “and” joins values, the source holds several entries; their conditions need not be identical. Identical values can stand only once. Ends that are not written are not given here. * marks the point of attachment. 125I = [125I]*
# Experiments:
# [1] = molecular target: (tyr^10 -^125 I)VIP (radioiodinated synthetic vasoactive intestinal polypeptide)
# [2] = tested on: male golden Syrian hamsters; assay: Hypotensive effect (mean arterial blood pressure) in anesthetized hamsters; assay type: in vivo, hamster
# Protocol: The hamsters were first prepared by anesthetizing intravenously 6 mg of sodium pentobarbital per 100 g of body weight. A tracheostomy was then performed to facilitate spontaneous breathing. Supplemental anesthesia was administered intravenously as necessary at 2-4 mg/100 g body weight/hour. A femoral artery was cannulated for blood pressure monitoring. A femoral vein was cannulated for drug and florescent tracer administration.
# (§1) The animals were kept on a heated pad throughout the duration of the experiment. Arterial blood pressure was recorded continuously using a pressure transducer and a strip-chart recorder (Model 7702B, Hewlett-Packard). The microcirculation of the hamster check pouch was visualized using intravital microscopy and clearance of fluorescein isothiocyanic-dextran (M.W.=70 RD; Sigma) from postcapillary venules and determined as described in W. G. Mayhan and I. Rubinstein, J. Appl. Physiol., 75, pp. 27-32 (1993).
# In each hamster, 1 ml aliquots of increasing concentrations of VIP dissolved in 0.15M sodium chloride or encapsulated in liposomes (1 nmol VIP/0.12 μmol phospholipids) were infused intravenously for 7 minutes.
# Mean arterial blood pressure was recorded before, during, and for 60 minutes after administration of each concentration of the peptide.
# (§2) The number of leaky sites in check pouch microcirculation was determined every minute throughout the duration of the experiments as disclosed in W. G. Mayhan, Supra. The data is expressed as means±SEM. Students t-test for unpaired observations was used to compare responses to vasoactive intestinal peptide. A p value<0.05 was considered to be significant.
# The effect on blood pressure was determined by measuring the magnitude of reduction in mean arterial blood pressure (MAP) as a function of time following infusion of VIP dissolved in saline or encapsulated in liposomes.
# PC/PG liposomes = assay: Binding of VIP by liposomes without cholesterol (PC/PG); conditions: PC/PG liposomes (no cholesterol)
# [3] = Release of liposome-bound VIP by solvent treatments (Table 2); assay type: physicochemical; conditions: twice 1 ml for 10 min, 23° C.
# Protocol: Lipid liposomes (4 mM Pi) were permitted to bind (Tyr^10 -^125 I)VIP (1 nM), washed extensively to remove unbound radioactivity and then treated twice with 1 ml of the indicated solutions for 10 min (23° C.). Released radioactivity was determined in the pooled supernatant obtained by centrifugation. Values are % of initial liposome-bound radioactivity (76,300 CPM), corrected for peptide release in control incubations performed in 50 mM HEPES, pH 7.3 (4.2±3.4%).
# [4] = Encapsulation of probes by making liposomes in their presence (Table 1); assay type: physicochemical; conditions: liposomes made from lipid solutions 2.6 mM Pi containing 2.5 μM probe
# Protocol: (§3) Values are means±s.d. Probe-binding was with pre-formed liposomes (2.3 mM Pi) and 100 nM CF or 0.2 nM (tyr^10 -^125 I)VIP mixed with 100 nM unlabeled peptide. Encapsulation was by making liposomes from lipid solutions (2.6 mM Pi) containing 2.5 μM CF or 1.7 nM (Tyr^10 -^125 I)VIP mixed with 2.5 μM unlabeled VIP. Free probes were removed by three washes with 50 mM HEPES, pH 7.3, containing 0.5% BSA. CF values were determined by fluorimetry after solubilization of liposomes, and VIP values, by measurement of liposome-associated radioactivity.
# [5] = tested on: hamster check pouch microcirculation; assay: Untoward effects and leaky sites in check pouch microcirculation; assay type: in vivo; conditions: i.v. infusion in hamsters
# Protocol: as §1, §2
# PC/CH liposomes = assay: Binding of VIP by electrically neutral liposomes (PC/CH); conditions: VIP 100 nM
# Protocol: (§4) Unilaminar phospholipid liposomes were formed using phosphatidylcholine (PC) and phosphatidylglycerol (PG) purified from egg yolk (Sigma). The fatty acid composition of the phospholipids determined by Sigma was: (PC, C16:0), (35%; C18:0, 12%; C18:1, 31%; C18:2, 14%); (PG, C16:0, 30%, C18:0, 13%; C18:1, 30%; C18:2, 16%). The unilamellar liposomes were prepared by reverse-phase evaporation as disclosed in Szoka, Jr., F. and Papahadjopoulos (1978) Proc. Natl. Acad. Sci. USA 75, 4194-4198), from a mixture of PG/PC/CH(cholesterol) (molar ratio 1:4:5) or PC/CH (1:1) dissolved in chloroform.
# The binding of VIP (100 nM) by electrically neutral and negative liposomes prepared from PC/CH and PG/PC/CH, respectively, was compared. In each case, the levels of peptide binding increased within increasing concentration of the liposomes. The values of % VIP bound±s.d./μmol Pi were, PG/PC/CH liposomes, 26.2+3.4; PC/CH liposomes, 12.6±1.5. […] The inclusion of cholesterol, an agent that can be expected to decrease bilayer fluidity at the temperatures used in this study, as reported in Demel, R. A. and DeKruyff, B. (1976) Biochim. Biophys.
# PG/PC/CH liposomes = assay: Binding of VIP by pre-formed lipid liposomes (PG/PC/CH); conditions: for binding of radiolabeled VIP by liposomes, % of available peptide: liposomes 2.5-45.6 mM Pi, 0.42 nM peptide
# Protocol: as §4
# Peptide was permitted to bind liposome surface in aqueous solution. In organic solvents as in Example I, the peptide will be expressed in as well as on the lipid membranes of liposomes.
# The liposomes were the pelleted (12,000×g, 10 min; Beckman centrifuge MICROFUGE®). The supernatant was aspirated and the liposome-associatedradioactivity was measured at 70% efficiency (Beckman model 5500 gamma counter). There was minimal loss of the liposomes in the supernatant, because more than 90% of the inorganic phosphate present in the reaction mixture was recovered in the pellet.
# The binding data was corrected for peptide adsorption by the reaction tubes determined in parallel incubations.
# Dissociation and saturability data were analyzed by means of Kinetic and Enzfitter (Elsevier Biosoft).
# The binding of the VIP to the liposome was determined as follows. Unilamellar lipid liposomes were prepared by reverse evaporation and assayed for binding of radiolabeled VIP, as described above. BSA was included in the assay diluent to saturate nonspecific polypeptide binding sites in the lipid liposomes and the polypropylene surface of the reaction tubes.
# as §3
# FIG. 5 illustrates the results of the competitive inhibition of binding of (Tyr^10-^125)VIP (0.26 nM) by the liposomes (2.4 mM Pi) by unlabeled VIP (10 nM-1 mM). Data are means±s.d expressed as % of available radiolabeled peptide. […]
# [6] = Release (leakage) of VIP from liposomes stored in buffer; assay type: physicochemical; conditions: stored in buffer at 4° C. for 14 days
# Protocol: The release of VIP from the liposomes was determined as follows.
# The peptide release from liposomes containing (tyr^10 -^125 I)VIP, approximately 20,000 cpm, kept at 4° C. in 50 mM HEPES, pH 7.3, containing 0.02% […] was determined by centrifugation of aliquots of the suspension at 12,400×g for 15 minutes and measurement of radioactivity in the supernatants.
# [7] = pre-formed liposomes 2.3 mM Pi, 100 nM CF or 0.2 nM tracer with 100 nM unlabeled VIP
substance,measurement,setting,value
trypsin from bovine pancreas (Sigma) (from UniProt P00760) (enzyme),peptide hydrolysis (trichloroacetic acid-soluble radioactivity of (tyr^10 -^125 I)VIP),[1],80 % digested
"HSDAVFTDNYTRLLRKQMAVKKYLNSILN-NH2 (not fully specified (residue 10); printed as HSDAVFTDNYTRLLRKQMAVKKYLNSILN-NH2) [VIP, synthetic 28-amino acid neuropeptide; conventional VIP solution used as comparator]",decrease in MAP,[2]; 1 nmole per hamster,weak and transient decrease in MAP
same,time at which a significant decrease in MAP was observed,"[2]; 1 nmole per hamster, i.v. infusion 7 minutes",5 min
same,"MAP values for treated animals (FIG. 2 legend, apparently baseline)","[2]; 1.0 nmole, 7 minutes i.v. infusion, n=5",93.0 mm Hg
same,return of arterial blood pressure to pre-infusion baseline,"[2]; 1 nmole, FIG. 2",9 min
same,reversibility of the hypotensive effect,"[2]; hamster, in vivo",fully reversible
same,% VIP bound/μmole Pi,PC/PG liposomes,24.9%
same,% VIP released,[3]; 1 mM HCl,3.0 ± 3.5%
same,% VIP released,[3]; 1 mM NaOH,15.9 ± 4.0%
same,% VIP released,[3]; 25 mM EDTA,8.1 ± 10.0%
same,% VIP released,[3]; 1% SDS,81.1 ± 9.6%
same,% VIP released,[3]; 1 M NaCl,2.7 ± 3.0%
same,Encapsulation,[4],37.5 ± 5.0 nM
same,untoward effects during infusion,[5],did not display detectable untoward effects
same,% VIP bound/μmol Pi,PC/CH liposomes,12.6±1.5%
same,apparent binding capacity at saturating VIP concentrations,PG/PC/CH liposomes,1 mol VIP/12.5 mol phospholipid
same,IC50,"PG/PC/CH liposomes; 0.26 nM tracer, liposomes 2.4 mM Pi, read-out: IC50, competitive inhibition of partitioning of (Tyr10-125I)VIP into liposomes",560 µM
same,% VIP bound/μmol Pi,"PG/PC/CH liposomes; VIP 100 nM, PG/PC/CH liposomes",26.2 ± 3.4% and 26.2%
same,partition constant derived from the binding isotherm,"PG/PC/CH liposomes; nominal value, neutral pH",1400 M⁻¹
same,Binding,PG/PC/CH liposomes; [7],20.5 ± 1.0 nM
carboxyfluorescein [CF],Encapsulation,[4],82.5 ± 7.5 nM
same,Binding,PG/PC/CH liposomes; [7],0.01 ± 0.001 nM
same,"Binding, nM","PG/PC/CH liposomes; pre-formed liposomes 2.3 mM Pi, 100 nM CF or 0.2 nM tracer with 100 nM unlabeled VIP, listed as carboxyfluorescein",very small amounts
"(tyr^10 -^125 I)VIP: VIP radioiodinated at tyrosine 10, used as tracer (HSDAVFTDNY(125I)TRLLRKQMAVKKYLNSILN-NH2)",leakage of (tyr10-125I)VIP from the liposomes,[6],< 2 % of available radioactivity
same,"binding of radiolabeled VIP by liposomes, % of available peptide",PG/PC/CH liposomes,up to 56.6%
same,"binding of radiolabeled VIP by liposomes, % of available peptide",PG/PC/CH liposomes; listed as radiolabeled VIP,up to 60%
